In brackets after ≈: the same amount, converted by molar mass.
Experiments:
[1] = Inhibition of Escherichia coli recombinant methionine aminopeptidase expressed in Escherichia coli BL21 (DE3) using MetAMC as substrate in presence of Co(II)
[2] = Inhibition of Escherichia coli recombinant methionine aminopeptidase expressed in Escherichia coli BL21 (DE3) using MetAMC as substrate in presence of Mn(II)
[3] = Inhibition of Escherichia coli recombinant methionine aminopeptidase expressed in Escherichia coli BL21 (DE3) using MetAMC as substrate in presence of Fe(II)
[4] = tested on: Escherichia coli; assay: Antibacterial activity against Escherichia coli AS19 after 10 hrs by fluorescence assay; type: functional, organism-based; details: AS19, 10 h

| IC50 [1] [µM] | IC50 [2] [µM] | IC50 [3] [µM] | IC50 [4] [µM] | MIC [4] [µg/mL] | Compound |
| --- | --- | --- | --- | --- | --- |
| 65.2 | 80.2 | 39.1 | 112 | 100 (≈ 454 µM) | O=C(O)c1ccc(-c2cccs2)cc1O |
| 81 | 90.7 | 109 | 73.1 | 47 (≈ 201 µM) | Cc1ccc(-c2ccc(C(=O)O)c(O)c2)s1 |
| 87.7 | 62.7 | 73 | 34.1 | 28 (≈ 110 µM) | O=C(O)c1ccc(-c2ccc(Cl)s2)cc1O |
| 254 | 89.8 | 500 | > 1000 | > 234 | COc1cc(-c2cccs2)ccc1C(=O)O |
| 256 | 160 | 270 | 550 | 272 (≈ 1100 µM) | COc1cc(-c2ccc(C)s2)ccc1C(=O)O |
| 249 | 159 | > 500 | > 1000 | > 204 | O=C(O)c1ccc(-c2cccs2)cc1 |
| 251 | 143 | 267 | > 1000 | > 222 | O=C(O)c1ccc(-c2cccs2)c(F)c1 |
| 329 | 336 | 253 | 871 | 306 (≈ 1300 µM) | Cc1ccc(-c2ccc(C(=O)O)cc2F)s1 |
| 166 | 118 | 203 | 641 | 297 (≈ 1160 µM) | O=C(O)c1ccc(-c2ccc(Cl)s2)c(F)c1 |
| 118 | 97.5 | 29.9 | 51.4 | 33 (≈ 114 µM) | O=C(O)c1ccc(-c2cc(Cl)sc2Cl)cc1O |
| 290 | 97.3 | > 500 | 829 | 521 (≈ 1720 µM) | COc1cc(-c2cc(Cl)sc2Cl)ccc1C(=O)O |
| 88.1 | 33.7 | 3.1 | 74.6 | 38 (≈ 149 µM) | O=C(O)c1cc(-c2cccs2)c(Cl)cc1O |
| 77.4 | 37.8 | 6.8 | 161 | 87 (≈ 324 µM) | Cc1ccc(-c2cc(C(=O)O)c(O)cc2Cl)s1 |
| 74.1 | 36.6 | 4.9 | 48.5 | 30 (≈ 104 µM) | O=C(O)c1cc(-c2ccc(Cl)s2)c(Cl)cc1O |
| 203 | 19.1 | 208 | > 1000 | > 268 | COc1cc(Cl)c(-c2cccs2)cc1C(=O)O |
| 70.9 | 11.4 | 106 | > 1000 | > 282 | COc1cc(Cl)c(-c2ccc(C)s2)cc1C(=O)O |
| > 500 | 17.4 | 192 | > 1000 | > 234 | COc1ccc(C(=O)O)cc1-c1cccs1 |
| 464 | 33.8 | 167 | > 1000 | > 248 | COc1ccc(C(=O)O)cc1-c1ccc(C)s1 |
